# Assays:
# Format in all cases: functional
# [1] = tested on: Enterococcus faecalis; assay: Antibacterial activity against vancomycin-resistant Enterococcus faecalis assessed as post-antibiotic sub-MIC effect at 0.2 times MIC concentration pretreated with 10 times MIC concentration for 1 hr followed by 1:1000 dilution by viable plate count method
# [2] = tested on: Haemophilus influenzae; assay: Antibacterial activity against beta-lactamase deficient ampicillin-resistant Haemophilus influenzae assessed as post-antibiotic sub-MIC effect at 0.2 times MIC concentration pretreated with 10 times MIC concentration for 1 hr followed by 1:1000 dilution by viable plate count method
# [3] = tested on: Escherichia coli; assay: Antibacterial activity against Escherichia coli assessed as post-antibiotic sub-MIC effect at 0.2 times MIC concentration pretreated with 10 times MIC concentration for 1 hr followed by 1:1000 dilution by viable plate count method
# [4] = tested on: Staphylococcus aureus; assay: Antibacterial activity against vancomycin-intermediate methicillin-resistant Staphylococcus aureus assessed as sub-MIC effect at 0.3 times MIC concentration incubated for 1 hr by viable plate count method
# [5] = tested on: Enterococcus faecalis; assay: Antibacterial activity against vancomycin-sensitive Enterococcus faecalis assessed as sub-MIC effect at 0.3 times MIC concentration incubated for 1 hr by viable plate count method
# [6] = tested on: Enterococcus faecalis; assay: Antibacterial activity against vancomycin-resistant Enterococcus faecalis assessed as sub-MIC effect at 0.3 times MIC concentration incubated for 1 hr by viable plate count method
# [7] = tested on: Escherichia coli; assay: Antibacterial activity against Escherichia coli assessed as sub-MIC effect at 0.3 times MIC concentration incubated for 1 hr by viable plate count method
# [8] = tested on: Streptococcus pneumoniae; assay: Antibacterial activity against penicillin-intermediate Streptococcus pneumoniae assessed as post-antibiotic sub-MIC effect at 0.3 times MIC concentration pretreated with 10 times MIC concentration for 1 hr followed by 1:1000 dilution by viable plate count method
# [9] = tested on: Streptococcus pneumoniae; assay: Antibacterial activity against penicillin-resistant Streptococcus pneumoniae assessed as post-antibiotic sub-MIC effect at 0.3 times MIC concentration pretreated with 10 times MIC concentration for 1 hr followed by 1:1000 dilution by viable plate count method
# [10] = tested on: Klebsiella pneumoniae; assay: Antibacterial activity against Klebsiella pneumoniae assessed as post-antibiotic sub-MIC effect at 0.3 times MIC concentration pretreated with 10 times MIC concentration for 1 hr followed by 1:1000 dilution by viable plate count method
# [11] = tested on: Klebsiella pneumoniae; assay: Antibacterial activity against Klebsiella pneumoniae assessed as post-antibiotic sub-MIC effect at 0.3 times MIC concentration pretreated with 2 times MIC concentration for 1 hr followed by 1:1000 dilution by viable plate count method
# [12] = tested on: Enterobacter cloacae; assay: Antibacterial activity against Enterobacter cloacae assessed as post-antibiotic sub-MIC effect at 0.3 times MIC concentration pretreated with 10 times MIC concentration for 1 hr followed by 1:1000 dilution by viable plate count method
# [13] = tested on: Enterobacter cloacae; assay: Antibacterial activity against Enterobacter cloacae assessed as post-antibiotic sub-MIC effect at 0.3 times MIC concentration pretreated with 2 times MIC concentration for 1 hr followed by 1:1000 dilution by viable plate count method
# [14] = tested on: Acinetobacter baumannii; assay: Antibacterial activity against Acinetobacter baumannii assessed as post-antibiotic sub-MIC effect at 0.3 times MIC concentration pretreated with 10 times MIC concentration for 1 hr followed by 1:1000 dilution by viable plate count method
# [15] = tested on: Staphylococcus aureus; assay: Antibacterial activity against vancomycin-intermediate methicillin-resistant Staphylococcus aureus assessed as sub-MIC effect at 0.4 times MIC concentration incubated for 1 hr by viable plate count method
# [16] = tested on: Enterococcus faecalis; assay: Antibacterial activity against vancomycin-resistant Enterococcus faecalis assessed as sub-MIC effect at 0.4 times MIC concentration incubated for 1 hr by viable plate count method
# [17] = tested on: Streptococcus pneumoniae; assay: Antibacterial activity against penicillin-intermediate Streptococcus pneumoniae assessed as post-antibiotic sub-MIC effect at 0.4 times MIC concentration pretreated with 10 times MIC concentration for 1 hr followed by 1:1000 dilution by viable plate count method
# [18] = tested on: Staphylococcus aureus; assay: Antibacterial activity against vancomycin-sensitive methicillin-resistant Staphylococcus aureus assessed as post-antibiotic sub-MIC effect at 0.4 times MIC concentration pretreated with 10 times MIC concentration for 1 hr followed by 1:1000 dilution by viable plate count method
# [19] = tested on: Staphylococcus aureus; assay: Antibacterial activity against vancomycin-sensitive methicillin-resistant Staphylococcus aureus assessed as post-antibiotic sub-MIC effect at 0.4 times MIC concentration pretreated with 6 times MIC concentration for 1 hr followed by 1:1000 dilution by viable plate count method
# [20] = tested on: Haemophilus influenzae; assay: Antibacterial activity against amoxicillin, clavulanate-resistant Haemophilus influenzae expressing beta-lactamase assessed as post-antibiotic sub-MIC effect at 0.4 times MIC concentration pretreated with 6 times MIC concentration for 1 hr followed by 1:1000 dilution by viable plate count method
# [21] = tested on: Enterobacter cloacae; assay: Antibacterial activity against Enterobacter cloacae assessed as sub-MIC effect at 0.2 times MIC concentration incubated for 1 hr by viable plate count method
# [22] = tested on: Haemophilus influenzae; assay: Antibacterial activity against amoxicillin, clavulanate-resistant Haemophilus influenzae expressing beta-lactamase assessed as sub-MIC effect at 0.2 times MIC concentration incubated for 1 hr by viable plate count method
# [23] = tested on: Haemophilus influenzae; assay: Antibacterial activity against beta-lactamase deficient and ampicillin-resistant Haemophilus influenzae assessed as sub-MIC effect at 0.2 times MIC concentration incubated for 1 hr by viable plate count method
# [24] = tested on: Streptococcus pneumoniae; assay: Antibacterial activity against penicillin-susceptible Streptococcus pneumoniae assessed as sub-MIC effect at 0.2 times MIC concentration incubated for 1 hr by viable plate count method
# [25] = tested on: Acinetobacter baumannii; assay: Antibacterial activity against Acinetobacter baumannii assessed as post antibiotic effect at 10 times MIC concentration incubated for 1 hr measured after 1:1000 dilution by viable plate count method
# [26] = tested on: Escherichia coli; assay: Antibacterial activity against Escherichia coli assessed as post antibiotic effect at 10 times MIC concentration incubated for 1 hr measured after 1:1000 dilution by viable plate count method
# [27] = tested on: Enterococcus faecalis; assay: Antibacterial activity against vancomycin-sensitive Enterococcus faecalis assessed as post antibiotic effect at 10 times MIC concentration incubated for 1 hr measured after 1:1000 dilution by viable plate count method
# [28] = tested on: Staphylococcus aureus; assay: Antibacterial activity against vancomycin-intermediate methicillin-resistant Staphylococcus aureus assessed as post antibiotic effect at 6 times MIC concentration incubated for 1 hr measured after 1:1000 dilution by viable plate count method
# [29] = tested on: Staphylococcus aureus; assay: Antibacterial activity against vancomycin-sensitive methicillin-resistant Staphylococcus aureus assessed as post antibiotic effect at 10 times MIC concentration incubated for 1 hr measured after 1:1000 dilution by viable plate count method
# [30] = tested on: Streptococcus pneumoniae; assay: Antibacterial activity against penicillin-resistant Streptococcus pneumoniae assessed as post antibiotic effect at 10 times MIC concentration incubated for 1 hr measured after 1:1000 dilution by viable plate count method
# [31] = tested on: Klebsiella pneumoniae; assay: Antibacterial activity against Klebsiella pneumoniae by macrodilution method
# [32] = tested on: Enterococcus faecalis; assay: Antibacterial activity against vancomycin-resistant Enterococcus faecalis by macrodilution method
# [33] = tested on: Acinetobacter baumannii; assay: Antibacterial activity against Acinetobacter baumannii assessed as post-antibiotic sub-MIC effect at 0.4 times MIC concentration pretreated with 10 times MIC concentration for 1 hr followed by 1:1000 dilution by viable plate count method
# [34] = tested on: Enterococcus faecalis; assay: Antibacterial activity against Enterococcus faecalis assessed as post antibiotic effect
smiles,measurement,setting,value
CN(C)c1cc(NC(=O)CNC(C)(C)C)c(O)c2c1C[C@H]1C[C@H]3[C@H](N(C)C)C(O)=C(C(N)=O)C(=O)[C@@]3(O)C(O)=C1C2=O [TIGECYCLINE],PAE,[1],7.6 h
same,PAE,[2],2.8 h
same,PAE,[3],2.4 h
same,PAE,[4],2.9 h
same,PAE,[5],0.2 h
same,PAE,[6],0.3 h
same,PAE,[7],0 h
same,PAE,[8],8.8 h
same,PAE,[9],10.2 h
same,PAE,[10],2 h
same,PAE,[11],2 h
same,PAE,[12],5 h
same,PAE,[13],4.9 h
same,PAE,[14],11.2 h
same,PAE,[15],2.9 h
same,PAE,[16],0.4 h
same,PAE,[17],8.8 h
same,PAE,[18],6.7 h
same,PAE,[19],6.9 h
same,PAE,[20],7.7 h
same,PAE,[21],0.2 h
same,PAE,[22],0 h
same,PAE,[23],0.8 h
same,PAE,[24],0 h
same,PAE,[25],2.9 h
same,PAE,[26],2 h
same,PAE,[27],3.9 h
same,PAE,[28],4 h
same,PAE,[29],3.2 h
same,PAE,[30],4.8 h
same,MIC,[31],0.25 µg/mL
same,MIC,[32],0.06 µg/mL
same,PAE,[33],11.2 h
same,PAE,[34],1 h

# Reference: ChEMBL document CHEMBL1629634, “Postantibiotic effect of tigecycline against 14 gram-positive organisms” (Antimicrob Agents Chemother, 2009)
